Assay results published in patent US8431593B2, “Heteroaryl amide derivatives” (H. Lundbeck A/S, priority 2006, dated 2013).

The compounds below were run against T1, P2X7 receptor (Homo sapiens, UniProt Q99572) (assay: P2X7 calcium mobilization assay, high throughput, antagonist activity (Example 4A)). Details: not given.
T1 construct: host or cells: SH-SY5Y
T1 sequence (Q99572 1-595): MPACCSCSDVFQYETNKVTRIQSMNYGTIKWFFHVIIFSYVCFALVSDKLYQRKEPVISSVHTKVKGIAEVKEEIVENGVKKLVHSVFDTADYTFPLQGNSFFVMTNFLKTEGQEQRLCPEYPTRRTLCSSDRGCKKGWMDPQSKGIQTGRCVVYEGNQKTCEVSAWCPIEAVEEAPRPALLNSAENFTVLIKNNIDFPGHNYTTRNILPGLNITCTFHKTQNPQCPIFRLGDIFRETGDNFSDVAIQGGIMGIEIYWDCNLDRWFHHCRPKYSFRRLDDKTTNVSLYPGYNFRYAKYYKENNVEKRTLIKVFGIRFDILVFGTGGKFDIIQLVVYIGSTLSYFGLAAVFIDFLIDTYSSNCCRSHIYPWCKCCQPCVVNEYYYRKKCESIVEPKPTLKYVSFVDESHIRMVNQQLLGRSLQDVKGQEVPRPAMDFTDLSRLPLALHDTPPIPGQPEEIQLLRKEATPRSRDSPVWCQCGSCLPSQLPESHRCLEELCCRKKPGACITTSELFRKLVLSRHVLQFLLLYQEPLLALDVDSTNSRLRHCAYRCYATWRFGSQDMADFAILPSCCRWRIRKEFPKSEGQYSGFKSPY
Type: cell-based
In short: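 Antagonism was measured as calcium fluorescence (FLIPR Tetra) in cells seeded one day earlier at 100,000/well, loaded with dye for 1 h and exposed to compound for 1 h at room temperature before agonist. Peak RFU, minus the no-agonist background, was referenced to the mean of the agonist wells.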

For `CN(C)CCOCc1cn2c(C(=O)NCC34CC5CC(CC(C5)C3)C4)cccc2n1` [Compound 127, N-(adamantan-1-ylmethyl)-2-{[2-(dimethylamino)eth-oxy]methyl}imi-dazo[1,2-a]pyridine-5-carboxamide], which IC50 is on record?
The IC50 was < 2000 nM.

Same assay, conditions: 50% decrease in the fluorescence response of cells exposed to 80 μM 2′(3′)-O-(4-benzoyl-benzoyl)adenosine 5′-triphosphate; Example 4A; read-out: IC50

With `CC(CO)c1cn2c(C(=O)NCC34CC5CC(CC(C5)C3)C4)cccc2n1` (stereo not drawn) [Compound 535, N-(adamantan-1-ylmethyl)-2-(2-hydroxy-1-methylethyl)imidazo[1,2-a]pyridine-5-carboxamide] as the compound, how does the IC50 read?
The IC50 was < 2000 nM.

Which IC50 does the source give for `CC1(C)[C@H]2CC[C@@H](CNC(=O)c3cccc4nc(C(=O)N5CCC(F)CC5)cn34)[C@@H]1C2` [Compound 494, N-{[(1S,2R,5S)-6,6-dimethylbicyclo[3.1.1]hept-2-yl]methyl}-2-[(4-fluoropiperidin-1-yl)carbonyl]imidazo[1,2-a]pyridine-5-carboxamide] here?
Its IC50 is < 2000 nM.

Same assay, conditions: 50% decrease in the fluorescence response of cells exposed to 80 μM of 2′(3′)-O-(4-benzoyl-benzoyl)adenosine 5′-triphosphate; Example 4A; read-out: IC50

With `CN(C)CCN(C(=O)c1cn2c(C(=O)NCC34CC5CC(CC(C5)C3)C4)cccc2n1)C1CCNCC1(C)C` (stereo not drawn) [Compound 620, 5-N-(adamantan-1-ylmethyl)-2-N-[2-(dimethylamino)ethyl]-2-N-(3,3-dimethylpiperidin-4-yl)imidazo[1,2-a]pyridine-2,5-dicarboxamide] as the compound, how does the IC50 read?
The IC50 was < 2000 nM.

With `CN(Cc1ccc(C(F)(F)F)cn1)C(=O)c1cn2c(C(=O)NCC34CC5CC(CC(C5)C3)C4)cccc2n1` [Compound 711, 5-N-(adamantan-1-ylmethyl)-2-N-methyl-2-N-{[5-(trifluoromethyl)pyridin-2-yl]methyl}imidazo[1,2-a]pyridine-2,5-dicarboxamide] as the compound, how does the IC50 read?
The IC50 was < 2000 nM.

For `CCN(Cc1ccc(C2=NCCN2)cc1)C(=O)c1cn2c(C(=O)NCC34CC5CC(CC(C5)C3)C4)cccc2n1` [Compound 715, 5-N-(adamantan-1-ylmethyl)-2-N-[4-(4,5-dihydro-1H-imidazol-2-yl)benzyl]-2-N-ethylimidazo[1,2-a]pyridine-2,5-dicarboxamioe], which IC50 is on record?
The IC50 was < 2000 nM.

For `CC(C)CC(CNC(=O)c1cccc2nc(CC(=O)NC3CCCC3)cn12)c1ccc(Cl)cc1` (stereo not drawn) [Compound 794, N-[2-(4-chlorophenyl)-4-methylpentyl]-2-[2-(cyclopentylamino)-2-oxoethyl]imidazo [1,2-a]pyridine-5-carboxamide], which IC50 is on record?
The IC50 was < 2000 nM.

`CN(C)C1CCN(C(=O)c2cn3c(C(=O)NCC45CC6CC(CC(C6)C4)C5)cccc3n2)CC1` [Compound 669, N-(adamantan-1-ylmethyl)-2-{[4-(dimethylamino)piperidin-1-yl]carbonyl}imidazo[1,2-a]pyridine-5-carboxamide] was tested. Which IC50 did it give?
The IC50 was < 2000 nM.

`N[C@@H]1CCN(C(=O)CCc2cn3c(C(=O)NCC45CC6CC(CC(C6)C4)C5)cccc3n2)C1` [Compound 778, N-(adamantan-1-ylmethyl)-2-{3-[(3R)-3-aminopyrrolidin-1-yl]-3-oxopropyl} imidazo[1,2-a] pyridine-5-carboxamide] was tested. Which IC50 did it give?
The IC50 was < 2000 nM.

Which IC50 does the source give for `CCOC(=O)C(CC(=O)N(C)C)c1cn2c(C(=O)NCC34CC5CC(CC(C5)C3)C4)cccc2n1` (stereo not drawn) [Compound 809, ethyl 2-{5-[(adamantan-1-ylmethyl)carbamoyl]imidazo[1,2-a]pyridin-2-yl}-4-(dimethylamino)-4-oxobutanoate] here?
Its IC50 is < 2000 nM.

Which IC50 does the source give for `O=C(NCc1cccnc1)c1cn2c(C(=O)NCC34CC5CC(CC(C5)C3)C4)cccc2n1` [Compound 655, 5-N-(adamantan-1-ylmethyl)-2-N-(pyridin-3-ylmethyl) imidazo[1,2-a]pyridine-2,5-dicarboxamide] here?
The IC50 was < 2000 nM.

Which IC50 does the source give for `NC1CC2CCC(C1)N2C(=O)c1cn2c(C(=O)NCC34CC5CC(CC(C5)C3)C4)cccc2n1` (stereo not drawn) [Compound 640, N-(adamantan-1-ylmethyl)-2-[(3-amino-8-azabicyclo[3.2.1]oct-8-yl)carbonyl]imidazo[1,2-a]pyridine-5-carboxamide] here?
The IC50 was < 2000 nM.

`CCN(C)CCN(CC)C(=O)c1cn2c(C(=O)NCC34CC5CC(CC(C5)C3)C4)cccc2n1` [Compound 673, 5-N-(adamantan-1-ylmethyl)-2-N-ethyl-2-N-{2-[ethyl(methyl)amino]ethyl}imidazo[1,2-a]pyridine-2,5-dicarboxamide] was tested. Which IC50 did it give?
The IC50 was < 2000 nM.

Same assay, conditions: 50% decrease in the fluorescence response of cells exposed to 80 μM of 2′(3′)-O-(4-benzoyl-benzoyl)adenosine 5′-triphosphate; determined as in Example 4A; read-out: IC50

For `CC(C)CC(CNC(=O)c1cccc2nc(CCC(=O)O)cn12)c1ccc(C(F)(F)F)cc1` (stereo not drawn) [Compound 986, 3-[5-({4-methyl-2-[4-(trifluoromethyl)phenyl]pentyl}carbamoyl)imidazo[1,2-a]pyridin-2-yl] propanoic acid], which IC50 is on record?
The IC50 was < 2000 nM.

How did the IC50 turn out when `CCOC(=O)C(Cc1ccccc1Cl)c1cn2c(C(=O)NCC34CC5CC(CC(C5)C3)C4)cccc2n1` (stereo not drawn) [Compound 840, ethyl 2-{5-[(adamantan-1-ylmethyl)carbamoyl]imidazo[1,2-a]pyridin-2-yl}-3-(2-chlorophenyl) propanoate] was run?
The IC50 was < 2000 nM.

With `CC(C)CC(CNC(=O)c1cccc2nc(C(Cc3ccccc3)C(=O)O)cn12)c1ccc(Cl)cc1` (stereo not drawn) [Compound 939, 2-(5-{[2-(4-chlorophenyl)-4-methylpentyl]carbamoyl}imidazo[1,2-a]pyridin-2-yl)-3-phenylpropanoic acid] as the compound, how does the IC50 read?
Its IC50 is < 2000 nM.

For `O=C(O)CCc1cn2c(C(=O)NCC3(c4ccc(Cl)cc4)CCCCC3)cccc2n1` [Compound 900, 3-[5-({[1-(4-chlorophenyl)cyclohexyl]methyl}carbamoyl)imidazo[1,2-a]pyridin-2-yl] propanoic acid], which IC50 is on record?
The IC50 was < 2000 nM.

Same assay, conditions: SH-SY5Y cells; 50% decrease in fluorescence response to 80 μM BzATP; read-out: IC50

Which IC50 does the source give for `N[C@@H]1CCN(CCc2cn3c(C(=O)NCC45CC6CC(CC(C6)C4)C5)cccc3n2)C1` [Compound 115, 2-[2-((R)-3-amino-pyrrolidin-1-yl)-ethyl]-imidazo[1,2-a]pyridine-5-carboxylic acid (adamantan-1-ylmethyl)-amide] here?
The IC50 was < 2000 nM.

With `N[C@@H]1CCN(Cc2cn3c(C(=O)NCC45CC6CC(CC(C6)C4)C5)cccc3n2)C1` [Compound 69, N-(adamantan-1-ylmethyl)-2-{[(3R)-3-aminopyrrolidin-1-yl]methyl}imidazo[1,2-a]pyridine-5-carboxamide] as the compound, how does the IC50 read?
The IC50 was < 2000 nM.

`O=C(NCC12CC3CC(CC(C3)C1)C2)c1cccc2nc(Cn3cncc3CO)cn12` [Compound 200, N-(adamantan-1-ylmethyl)-2-{[5-(hydroxymethyl)-1H-imidazol-1-yl]methyl}imidazo[1,2-a]pyridine-5-carboxamide] was tested. Which IC50 did it give?
Its IC50 is < 2000 nM.

With `O=C(NCC12CC3CC(CC(C3)C1)C2)c1cccc2nc(CC(=O)N3CCC(O)CC3)cn12` [Compound 54, N-(adamantan-1-ylmethyl)-2-[2-(4-hydroxypiperidin-1-yl)-2-oxoethyl]imidazo[1,2-a]pyridine-5-carboxamide] as the compound, how does the IC50 read?
The IC50 was < 2000 nM.

Same assay, conditions: fluorescence response of cells exposed to 80 μM 2′(3′)-O-(4-benzoyl-benzoyl)adenosine 5′-triphosphate; Example 4A; read-out: IC50

How did the IC50 turn out when `O=C(O)c1cccn(Cc2cn3c(C(=O)NCC45CC6CC(CC(C6)C4)C5)cccc3n2)c1=O` [Compound 351, 1-({5-[(adamantan-1-ylmethyl)carbamoyl]imidazo[1,2-a]pyridin-2-yl}methyl)-2-oxo-1,2-dihydropyridine-3-carboxylic acid] was run?
Its IC50 is < 2000 nM.

How did the IC50 turn out when `NCC(=O)NCCc1cn2c(C(=O)NCC34CC5CC(CC(C5)C3)C4)cccc2n1` [Compound 269, N-(adamantan-1-ylmethyl)-2-[2-(glycylamino)ethyl] imidazo[1,2-a] pyridine-5-carboxamide] was run?
Its IC50 is < 2000 nM.

With `CCCOCCNC(=O)Cc1cn2c(C(=O)NCC(CC(C)C)c3ccccc3)cccc2n1` (stereo not drawn) [Compound 230, N-(4-methyl-2-phenylpentyl)-2-{2-oxo-2-[(2-propoxyethyl)amino]ethyl}imidazo[1,2-a]pyridine-5-carboxamide] as the compound, how does the IC50 read?
The IC50 was < 2000 nM.
